According to patent US20100130526A1, “Methods for Disease Therapy” (priority 2008, published 2010):

Key:
Type in all cases: in vivo, human
NLRP1 mRNA = test: Microarray analysis of NLRP1 mRNA expression in PBMC of malaria patients before and after chloroquine therapy; conditions: disease-decreased level (1.4-fold), p=0.016, data set GSE5418
Description: (§1) (See FIG. 12). […] (See FIG. 12).

[1] = test system: principal components of nuclear import and inflammasome pathways; test: Gene expression phenotypes of nuclear import and inflammasome pathways in PBMC of chloroquine-treated malaria patients; conditions: PBMC of malaria patients treated with chloroquine
KPNA1 mRNA = test: Microarray analysis of KPNA1 mRNA expression in PBMC of malaria patients before and after chloroquine therapy; conditions: disease-decreased level (3.9-fold), p=0.0015, data set GSE5418
Description: as §1

NLRP3 mRNA = test: Microarray analysis of NLRP3 mRNA expression in PBMC of malaria patients before and after chloroquine therapy; conditions: disease-increased level (2.7-fold), p=0.024, data set GSE5418
Description: as §1

KPNA6 mRNA = test: Microarray analysis of KPNA6 mRNA expression in PBMC of malaria patients before and after chloroquine therapy; conditions: data set GSE5418
Description: as §1

CCN(CC)CCCC(C)Nc1ccnc2cc(Cl)ccc12 (centres unmarked) [chloroquine]
NLRP1 mRNA expression elevated after chloroquine therapy (NLRP1 mRNA): 13%
Effect on aberrant disease-associated gene expression phenotypes (KPNA1, NLRP1, NLRP3) [1]: partial reversal of the aberrant gene expression phenotypes
KPNA1 mRNA expression elevated after chloroquine therapy (KPNA1 mRNA): 66%
NLRP3 mRNA expression reduced after chloroquine therapy (NLRP3 mRNA): 57%
KPNA6 mRNA expression change after chloroquine therapy (KPNA6 mRNA): do not manifest statistically significant changes
